The source of these data is PMC3956299 (Chembiochem : a European journal of chemical biology, 2009).

The test system of experiment [1] is processing of influenza viral hemagglutinin in cultured MDCK cells. Conditions: cited from earlier work.
The target in experiment [2] is T1, Drosophila Golgi α-mannosidase II (dGMII) (Drosophila melanogaster, UniProt Q24451).
T1 sequence (Q24451 31-1108 limits assumed): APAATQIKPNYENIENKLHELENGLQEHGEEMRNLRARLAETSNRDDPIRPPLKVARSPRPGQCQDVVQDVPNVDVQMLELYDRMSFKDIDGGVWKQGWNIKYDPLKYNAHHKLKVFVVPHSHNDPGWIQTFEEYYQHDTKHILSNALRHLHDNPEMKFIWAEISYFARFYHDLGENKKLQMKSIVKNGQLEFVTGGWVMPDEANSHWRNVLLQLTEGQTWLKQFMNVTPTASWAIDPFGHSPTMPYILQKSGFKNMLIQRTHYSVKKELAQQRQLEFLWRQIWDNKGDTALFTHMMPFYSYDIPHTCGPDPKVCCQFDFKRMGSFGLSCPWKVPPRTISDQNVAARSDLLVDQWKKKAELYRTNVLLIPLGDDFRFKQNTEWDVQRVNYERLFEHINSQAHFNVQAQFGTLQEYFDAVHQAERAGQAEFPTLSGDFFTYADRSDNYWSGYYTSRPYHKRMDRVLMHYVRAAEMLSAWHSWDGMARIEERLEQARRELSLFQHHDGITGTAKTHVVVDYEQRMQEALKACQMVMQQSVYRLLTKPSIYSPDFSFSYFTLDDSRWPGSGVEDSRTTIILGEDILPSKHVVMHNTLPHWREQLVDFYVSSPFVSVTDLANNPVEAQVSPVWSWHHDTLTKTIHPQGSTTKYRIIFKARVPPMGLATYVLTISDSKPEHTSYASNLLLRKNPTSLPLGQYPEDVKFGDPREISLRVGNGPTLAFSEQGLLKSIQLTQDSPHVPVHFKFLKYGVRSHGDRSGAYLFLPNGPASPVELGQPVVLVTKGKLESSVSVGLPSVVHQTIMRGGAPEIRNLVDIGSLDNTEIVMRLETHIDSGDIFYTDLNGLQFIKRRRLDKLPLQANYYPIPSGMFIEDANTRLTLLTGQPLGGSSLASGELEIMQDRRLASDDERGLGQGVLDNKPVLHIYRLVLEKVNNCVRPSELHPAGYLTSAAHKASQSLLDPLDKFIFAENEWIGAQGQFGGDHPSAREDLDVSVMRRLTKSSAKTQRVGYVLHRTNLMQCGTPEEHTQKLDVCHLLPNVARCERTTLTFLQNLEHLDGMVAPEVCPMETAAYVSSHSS
In kind it is biochemical.

Turning to `CS[C@@H]1[C@@H](N)[C@@H](O)[C@@H](O)[C@H]1O` [Compound 1, Mannostatin A], the “effect on processing of influenza viral hemagglutinin” value in experiment [1] was “effectively blocked the processing of influenza viral hemagglutinin”.
`N[C@@H]1C[C@H](O)[C@H](O)[C@@H]1O` [Compound 3, (1S, 2S, 3R, 4R)-4-aminocyclopentane-1,2,3-triol]: the “inhibitory activity in words” value in experiment [2] is “very poor inhibitor”.
On to `CO[C@@H]1[C@@H](N)[C@@H](O)[C@@H](O)[C@H]1O` [Compound 5, (1R, 2R, 3R, 4S, 5R)-4-Amino-5-methoxycyclopentane-1,2,3-triol], for which the “fold enhancement of potency on changing hydroxyl of 4 to methoxy” value in experiment [2] (relative to 4 (4a)) was ~ 4 fold.
